Read-outs that look alike come from different tables or passages of the source.
What was measured:
[1] = cited from earlier work
[2] = Partition between octan-1-ol and aqueous solution at pH 7.0 (log P / log D); settings: for partition in octan-1-ol: octan-1-ol / water pH 7.0; for share in the aqueous phase: octan-1-ol / water
Method: In a 10-mL glass tube, two milligrams of sinapine, sinapic acid or MitoTEMPO were added by 4 mL of a 75 mM KH2PO4 buffer solution (aqueous phase), and 4 mL of octan-1-ol. The mixture was then vortexed for 1 hour at room temperature and left to equilibrate for 30 min for sinapic acid and sinapine, and overnight for MitoTEMPO. Both phases were collected with a Pasteur pipette and extemporaneously analyzed by LC-MS using the procedure described below in section 2.7.
The partition coefficient of sinapine, sinapic acid and MitoTEMPO (a commercially-available mitonchondria-targeting superoxide dismutase (SOD) mimetic) between two immiscible liquid phases (octan-1-ol and an aqueous solution at pH 7.0) was measured.

[3] = test system: ROS production in cardiac tissue; assay: ROS production by dihydroethidium (DHE) staining of cardiac tissue after ischemia-reperfusion; design: species or system rat; settings: 10 min after IR; for reduction of DHE fluorescence compared to control hearts: MitoT 0.1 μM, sinapine 60 μM
Method: LV samples were embedded in Optimal Cutting Temperature (OCT from Tissue-Tek) and flash-frozen in liquid nitrogen. Frozen sections were covered with 10 μM DHE and incubated in alight-protected humidified chamber at 37° C. for 5 min. Images were obtained with a fluorescence microscope (Olympus BX60, Excitation: 488 nm; emission: 610 nm) at the Imaging facility 3A INRA/University of Avignon. SOD-mimetic TEMPOL (10 mM, Santa Cruz Biotechnology) was used as a negative control to confirm that the signals resulted from ROS production.

[4] = Oxygen radical absorbance capacity (ORAC) assay; settings: aqueous solution; n=4
Text: (§1) The result of this operation gave the net area under the curve (AUC) which was then plotted on a graph as a function of the concentration.

[5] = Conjugated autoxidizable triene (CAT) assay; settings: oil-in-water microemulsion; n=3
Text: as §1

cardiomyocytes = assay: Cytosol/mitochondria partitioning in cardiomyocytes by LC-MS/MS
Method: (§2) Ventricular cardiomyocytes were isolated from 200-250 g male adult Wistar rats as previously described (Cazorla et al. Transmural stretch-dependent regulation of contractile properties in rat heart and its alteration after myocardial infarction. FASEB J. 2005, 19, 88-90). The rats were anesthetized by i.p. injection of pentobarbital sodium (100 mg/kg) with heparin (100 U). The heart was rapidly excised, rinsed in ice-cold Hanks-HEPES buffer (in mM: NaCl 117, KCl 5.7. NaHCO3 4.4, KH2PO4 1.5. MgCl2 1.7, HEPES 21, glucose 11.7, taurine 20. pH at 7.15) mounted on a Langendort perfusion system and perfused (3 mi/min, at 37° C.) first with a Hanks-HEPES buffer for 5 min to be cleared from blood, then with a buffer supplemented with 1.2 mg/mL collagenase type 4 (Worthington, Lakewood, N.J., USA) for 13-18 min. Small pieces of left ventricle were dissected and mechanically dissociated. […] Experiments were performed in Tyrode solution with 1.8 mM Ca^2+.
Antioxidants were also quantified in cardiomyocytes using LC-MS/MS. Cardiomyocytes (100,000 cells/mL) were incubated in Tyrode for 1 or 2 h with different concentrations of sinapine (2, 20, and 60 μM) or sinapic acid (Sigma Aldrich, 2, 20, and 60 μM). Extracellular, cytosolic and mitochondrial fractions were obtained and frozen in liquid nitrogen until HPLC measurement. After incubation, cells were sedimented and the supernatant collected for the extracellular fraction. The pellet of cells was rinsed twice in Tyrode. Cells were incubated with PBS containing digitonine (5 mg/mL) for 10 min on ice. Cells were centrifugated at 10,000 g for 20 min at 4° C., and the supernatant consisting in the cytosolic fraction was collected. The mitochondrial fraction was collected after rinsing five times the pellets in PBS to avoid contamination of the cytosolic fraction.
These different fractions were then analyzed using an Agilent Poroshell EC-C18 120, 2.7 microns, 2.1×150 mm analytical column on an Agilent 1290 Infinity II series pump. Injection volume was 1 μL. HPLC flow rate was 0.3 mL/min with the following mobile phases: water with 0.1% formic acid (A) and acetonitrile with 0.1% formic acid (B). The gradient was as follows: 0.0-3.0 min 0-30% B, 3.0-7.0 min 30-60% B, then a stabilization step of 4 min at the initial condition. Autosampler tray temperature was set to 10° C. and column temperature was set to 25° C. Detection was performed with an Agilent 6420 triple quadrupole in positive ionization mode with ESI source, gas temperature 325° C., gas flow 9 L/min, nebulizer 35 psi, and capillary voltage 3500 V. Mass spectrometer was working in MRM mode acquisition following the specific transition for Isoproturon-d3 (internal standard 210.2→75.0), Sinapine 310.2→251.1 (qualifier 175.0 and 91.0) and Sinapic acid 225.1→207.0 (qualifier 91.0 and 65.0).
To further evaluate if a positively charged moiety (such as choline) can endowed an antioxidant devoid of any lipid affinity with the ability to accumulate in mitochondria, we incubated sinapine and sinapic acid (lacking the choline group, i.e. negative control) in intact cardiomyocytes at three concentrations (2, 20, and 60 μM) for 1 or 2 h. Then, the mitochondrial fraction was separated from the cytosolic one using differential centrifugation. The levels of sinapine and sinapic acid were measured in each subcellular fraction using LC-MS/MS.

[6] = Plasmatic and tissular levels after oral administration of sinapine; type: in vivo, rat; settings: oral sinapine 200 mg/kg; for level in cytosolic and mitochondrial fractions of the heart: 120 min post-gavage; for plasmatic level: 10, 30, 60, 120 min
Method: To evaluate plasmatic and tissular bioavailability of sinapine, rats received 200 mg/kg of sinapine by oral gavage. […] Sinapine and sinapic acid were then quantified in plasma using the following procedure: plasma (50 μL) is mixed with internal standard solution (50 μL in methanol at 10 ng/mL) and mix on a vortex for 1 minute. The solution is then centrifuge for 3 minutes at 12000 rpm, and the supernatant injected into HPLC/MS for quantification. At the end of the procedure the animals were sacrificed and hearts quickly removed. The right ventricle cleaned and LV samples frozen in liquid nitrogen. LV tissue was homogenized in 2 mL of mitochondria isolation buffer (pH 7.2; in mM: 300 saccharose, 5 TES. 0.2 EGTA), using a Polytron (Ultra Turrax T25, IKA Labortechnik). The homogenate was centrifugated at 1,000 g for 10 min at 4° C. To separate cytosolic fraction from the mitochondrial one, the supernatant was centrifugated at 12,000 g for 15 min to 4° C., then collected (cytosolic fraction), while the pellet was collected for mitochondria fraction. To optimize the release of mitochondria materials, the pellet was homogenized in 2% Triton-X lysis buffer during 10 min on ice. To remove Triton-X, mitochondrial fraction was washed, then centrifuged (12,000 g for 15 min at 4° C.) and the pellet was resuspended in mitochondria isolation buffer. Cytosolic and mitochondria fraction obtained were quickly frozen in liquid nitrogen until HPLC measurement. To do so, mitochondria was extracted with the same procedure as for plasma procedure. Cytosol (50 μL) was pipetted into 10 mL volumetric flask, spiked successively with internal standard solution (200 μL at 250 ng/mL in methanol) and 5 mL of methanol-water (50/50 v:v). The flask was ultrasonicated for 5 min, and once cooled down, completed to 10 mL with methanol-water (50/50 v:v). Both the mitochondrial and the cytosolic fractions were analyzed with the LC-MS/MS procedure described above.
After 120 min post-gavage, the heart was removed, rinsed and quickly frozen in liquid nitrogen.

[7] = test system: ROS production in isolated adult rat cardiomyocytes; assay: H2O2 and antimycin A-induced oxidative stress in cardiomyocytes (H2DCF-DA and DHR123 probes); type: cell-based; settings: for effect on H2O2-induced increase in H2DCF-DA fluorescence (cytosolic ROS): 0.1 mM H2O2, 1 h pre-incubation; for effect on H2O2-induced increase in H2DCF-DA fluorescence (cytosolic ROS) / effect of pre-incubation on basal H2DCF-DA and DHR123 fluorescence: sinapic acid 60 μM; for effect of pre-incubation on basal H2DCF-DA and DHR123 fluorescence: control (basal) cells, no stress, sinapine 6 or 60 μM, 1 h
Method: Cardiomyocytes (30,000 cell/mL) were incubated with sinapine or sinapic acid for 1 h. Thirty minutes before the end, a fluorogenic probe was added. We used dihydrorhodamine 123 (DHR123) to probe mitochondrial H2O2 and peroxynitrites (Invitrogen Molecular probes Fischer scientific, D23806, Ex/Em: 508/529 nm, concentration=5 μM) and 2′,7′-dichlorodihydrofluorescein diacetate (H2DCF-DA) to probe cytosolic H2O2(Invitrogen Molecular probes Fischer scientific, D399 Ex/Em: 492/517 nm, concentration=5 μM). Cells were rinsed with a Tyrode solution and distributed in microplates for the various conditions. Some cells were stimulated with 0.1 mM H2O2(Sigma Aldrich) or with a 10 μM complex III blocker, antimycin A (AA, Sigma Aldrich) to force the cell to produce mitochondrial ROS. The microplate was immediately transferred to the microplate reader Tecan Infinite M200Pro. Fluorescence was measured at the different wavelengths every 5 min for 30 min.
Two different ROS sensitive fluorogenic probes were used, H2DCF-DA and DHR123, which are specific of cytosolic and mitochondrial ROS production, respectively (Wei et al. Nitric oxide induces oxidative stress and apoptosis in neuronal cells. Biochim. Biophys. Acta-Mol. Cell Res. 2000, 1498, 72-79; Rego et al. Influence of the antioxidants vitamin E and idebenone on retinal cell injury mediated by chemical ischemia, hypoglycemia, or oxidative stress. Free Rad Biol. Med. 1999, 26, 1405-1417; Mark et al. Basic FGF attenuates amyloid β-peptide-induced oxidative stress, mitochondrial dysfunction, and impairment of Na+/K+-ATPase activity in hippocampal neurons. Brain Res. 1997, 756, 205-214).
Myocytes loaded with one of the probes were distributed in microplate wells. ROS production was determined by following the increase of fluorescence for […]. Fluorescence was measured every 5 min and was normalized by the baseline fluorescence (T0). Some cells were incubated with either sinapine (6 or 60 μM) or sinapic acid (60 μM) for 1 h prior measurement. After the incubations, cells were washed out. Some cells were stimulated with 0.1 mM H2O2 or with a mitochondrial electron transport chain complex III blocker, 10 μM antimycin A (AA) to force mitochondria to produce mitochondrial ROS (Quinlan et al. The mechanism of superoxide production by the antimycin-inhibited mitochondrial Q-cycle. J. Biol. Chem. 2011, 286, 31361-31372).

[8] = test system: isolated adult cardiomyocytes; settings: male, Wistar, rat, 2 μM
Method: as §2

[9] = 2, 20 and 60 μM, 1 or 2 h incubation

Compound | log D/log P (pH 7.0) [1] | partition in octan-1-ol [2] [%] | reduction of DHE fluorescence compared to control hearts [3] [%] | ORAC value [4] | share in the aqueous phase [2] [%] | level in cytosolic and mitochondrial fractions of the heart [6] | plasmatic level [6] | effect on H2O2-induced increase in H2DCF-DA fluorescence (cytosolic ROS) ([7]; sinapine 6 and 60 μM) | effect of pre-incubation on basal H2DCF-DA and DHR123 fluorescence [7] | other results
COC1=C(OC)C(=O)C(CCC[P+](c2ccccc2)(c2ccccc2)c2ccccc2)=C(C)C1=O [MitoQ3] | 0.5 | – | – | – | – | – | – | – | – | –
COC1=C(OC)C(=O)C(CCCCC[P+](c2ccccc2)(c2ccccc2)c2ccccc2)=C(C)C1=O [MitoQ5] | 1.1 | – | – | – | – | – | – | – | – | –
COC1=C(OC)C(=O)C(CCCCCCCCCC[P+](c2ccccc2)(c2ccccc2)c2ccccc2)=C(C)C1=O.CS(=O)(=O)[O-] [MitoQ10] | 3.4 | – | – | – | – | – | – | – | – | –
CC1(C)CC(NC(=O)C[P+](c2ccccc2)(c2ccccc2)c2ccccc2)CC(C)(C)N1[O] [MitoTEMPO] | – | 50 | 24 | – | – | – | – | – | – | log D (pH 7.0) ([2]; octan-1-ol / aqueous buffer, experimental): 0.0; partitioning in both phases ([2]; octan-1-ol / aqueous phase, pH 7.0): 50/50
COc1cc(/C=C/C(=O)O)cc(OC)c1O [sinapic acid] | – | – | – | 2.73±0.176 mol of Trolox equivalent per mol of compound | > 85 | not found in any of the fractions | detected at all time points at a relatively stable level | prevented the increase in H2DCF-DA | no impact on the fluorescence level | CAT value [5]: 1.74±0.07 mol of Trolox equivalent per mol of compound; log P ([2]; octan-1-ol / aqueous solution at pH 7.0): −0.9; time of entry into cardiac cells (cardiomyocytes): within an hour; plasma amount of sinapic acid relative to sinapine ([6]; 2 h period): about five times more sinapic acid than sinapine; ROS production (DHE) versus Ctrl ([3]; sinapic acid 60 μM, not significant (p=0.12)): −20%
COc1cc(/C=C/C(=O)OCC[N+](C)(C)C)cc(OC)c1O [sinapine] | – | < 0.2 | 45 | 2.28±0.25 mol of Trolox equivalent per mol of compound | > 99 | detected and quantified in both the cytosol and mitochondria | detected at all time points at a relatively stable level | prevented the increase in H2DCF-DA | no impact on the fluorescence level | logD ([2]; pH 7): -3; logP ([2]; pH 7): -3; time after which fluorescence increased [8]: 10 to 15 min; level of the incubated compound in cytosol (cardiomyocytes; [9]): detected sinapine in a dose dependent manner; level of the incubated compound in mitochondria (cardiomyocytes; [9]): detected in a dose-dependent manner in mitochondria; share of sinapine entering the mitochondria that is hydrolyzed to sinapic acid (cardiomyocytes; after 1 or 2 h): approximately 25%; time of entry into cardiac cells (cardiomyocytes; no time-dependency between 1 and 2 h): within an hour; hydrolysis of sinapine in cytosol (sinapic acid not detected) (cardiomyocytes; sinapine incubation 1 or 2 h): no major sinapine hydrolysis; effect on antimycin A-induced increase in DHR123 fluorescence (mitochondrial ROS) ([7]; 10 μM antimycin A, 1 h pre-treatment): prevented by sinapine; dose dependence of the effect on H2O2-induced H2DCF-DA increase ([7]; sinapine 6 and 60 μM): dose-dependent

Reference: US12611392B2, “Mitochondria-targeting antioxidants” (GIVAUDAN SA, priority 2019, dated 2026)
